Experiments:
[1] = test system: goblet cell associated antigen passages (GAPs); assay: Enumeration of goblet cell associated antigen passages (GAPs) in SI and colon by in vivo two-photon imaging and fixed sections; design: species or system mice
Method: Intravital two-photon (2P) microscopy: Mice were anesthetized using nebulized isofluorane in 95% O2/5% CO2. Intravital preparation of the intestine was performed as previously described. To detect GAPs, lysine fixable fluorescently-labeled dextran 10,000 MW (10 mg/mL) and diamidino-2-phenylindole (DAPI; 10 mg/mL) were injected intraluminally 20 minutes prior to imaging, and imaging was performed for up to one hour. To detect paracellular leak fluorescently labeled dextran 3,000 MW (10 mg/mL) and DAPI (10 mg/mL) were injected intraluminally 20 minutes prior to imaging. To detect the extension of trans-epithelial dendrites by APCs, CD11c^YFP or CX3CR1^GFP were imaged as above using 10,000 MW fluorescent dextran to outline the epithelial surface. Tissues were excited using a Ti:sapphire laser tuned to 890 nm (Chameleon X R, Coherent). Time-lapse imaging was performed with a custom-built 2P microscope running ImageWarp acquisition software (A&B Software, New London, Conn.). Epithelial integrity was assessed by dextran and DAPI staining as described. Following imaging, tissues were placed in 10% formalin buffered phosphate solution (Fisher Scientific) to fix dextrans in place to confirm 2P findings and for further analysis by immunofluorescence microscopy.
In some experiments mice were treated with 150 μg/kg carbachol chloride i.p. 10 minutes before dextran, 100 mg/kg tropicamide (mAChR4 selective antagonist) i.p. 20 minutes before dextran, 500 μg/kg tyrphostin AG1478 (inhibitor of EGFR phosphorylation) i.p. 20 minutes before dextran, 10 mg/kg U-0126 (inhibitor of p42/p44 MAPK phosphorylation) i.p. 20 minutes before dextran, 1-1000 ng EGF (Shenandoah Biotechnologies) injected intraluminally 20 minutes before dextran, 10 μg LPS injected intraluminally 20 minutes before dextran, or 100 μl stomach contents from a DOL 10 mice, or 100 μl heat killed cecal contents from SPF housed adult mice injected intraluminally 20 minutes before dextran was administered. All reagents from Sigma Aldrich, St. Louis, Mo. unless otherwise noted.
Enumeration of GAPs: GAPs were identified as dextran-filled columns measuring approximately 20 μm (height)×5 μm (diameter) traversing the epithelium and containing a nucleus. GAPs were enumerated in the jejunum or mid-transverse colon using Z-stack images of a volume of 225 μm(x) by 250 μm(y) by 50 μm(z) acquired during in vivo 2P imaging as described above. SI GAPs were enumerated as GAPs per villus. When present, colonic GAPs were found on both the surface epithelium and within the crypts, but were enumerated as GAPs per crypt due to difficulty in distinguishing dextran filled GAPs from luminal dextran during in vivo imaging. De-identified and coded video clips were evaluated by a blinded investigator to enumerate GAPS in early life. The number of GAPs per villus and GAPs per crypt seen by 2P imaging were confirmed by immunofluorescence microscopy of tissues that were fixed following 2P imaging. To quantify GAPs per GC, lysine fixable 10,000 MW fluorescent dextran was injected into the lumen and intestines harvested 25 min later. Tissues were fixed with 10% formalin buffered saline for 45 min, sectioned, and stained with antibodies directed against cyt18. GCs were identified cyt18+ epithelial cells with GC morphology and GAPs as dextran containing epithelial cells defined as above.
Intravital two-photon (2P) microscopy: Mice were anesthetized using nebulized isofluorane in 95% O2/5% CO2. Intravital preparation of the intestine was performed as previously described. To detect GAPs, tetramethylrodamine labeled dextran 10,000 MW (10 mg/mL) or fluorescein labeled dextran 10,000 MW (10 mg/mL) and diamidino-2-phenylindole (DAPI; 10 mg/mL) were injected intraluminally 20 minutes prior to imaging and imaging was performed for up to one hour. Tissues were excited using a Ti:sapphire laser tuned to 890 nm (Chameleon XR, Coherent). […]

C57BL/6 mice = assay: DSS colitis after early-life manipulation of GAPs; assay type: in vivo; conditions: 3% DSS DOL30-38
Method: Treatments to alter GAPs: Acute induction or inhibition of GAPs was performed as previously described. Mice were given 500 μg/kg tyrphostin AG1478 i.p. to inhibit of EGFR activation, 10 mg/kg U0126 i.p. to inhibit MAPK/ERK (MEK1/MEK2) activation, 150 μg/kg carbamylcholine (acetycholine analogue) i.p., 100 mg/kg tropicamide (mAChR4 selective antagonist) i.p., 1 μg recombinant murine EGF (Shenandoah) in 20 μl PBS intracolonic, 10 μg LPS intraluminally, or 100 μl stomach contents from a DOL10 mice intraluminally, or 100 μl heat killed cecal contents from SPF housed adult mice intraluminally. Reagents from Sigma Aldrich, St. Louis, Mo. unless otherwise noted.
Adoptive T cell Transfer: 10^5 splenic CD4^+ T cells from CD45.1 CBir1 TCR transgenic mice, CD45.1+ DP1 TCR transgenic mice, or CD45.1+ OTII TCR transgenic mouse were enriched by magnetic particles (Stemcell Technology, #19752 Vancouver, British Columbia, Canada) and injected i.v. into mice. In some experiments cells were labeled with CFSE prior to injection, and MLNs of recipient mice were analyzed three days posts transfer. Mice were analyzed seven days posts transfer to evaluate the presence of the transferred population in the LP. In some experiments, in FIG. 34, FIG. 37, and FIG. 39, cells were transferred on DOL 16, and analyzed on DOL 30 or after 8 days of DSS treatment on DOL 38.
DSS colitis: Mice were given DSS (36,000-50,000 MW, Reagent grade, MP Biomedicals) in drinking water ad libitum for eight days. Math1^fl/fl ERT2^ViCre mice and litter mates were given 1.5% DSS due to their increased susceptibility to disease. Weight was measured daily. On the final day, colons were measured for length to assess shortening, and were fixed in buffered formalin and embedded in paraffin for sectioning. H/E sections were scored for disease as before. In some experiments, colon LP was isolated on the final day of DSS treatment to analyze endogenous T cell and transferred CBir1 T cell populations.

[2] = EGF on DOL10-21 or EGFR inhibition on DOL 24 and 26
[3] = EGFR inhibitors on DOL14 and 16 (post-neonatal phase)

| Molecule | colonic GAP formation / dextran uptake by colonic epithelial cells ([1]; DOL 14 mice (post-neonatal phase), wildtype) | colonic GAP formation ([1]; DOL 18 mice (post-neonatal phase), agent given luminally) | luminal EGF concentration below which colonic and SI GCs formed GAPs (a concentration that inhibits GAPs on short term exposure) ([1]; DOL ~10 (colon) and DOL ~18 (SI)) | Foxp3 expression of transferred CBir1 T cells after DSS (C57BL/6 mice; [2]) | disease severity in DSS colitis (histology, colon length) (C57BL/6 mice; [2]) | expansion of CBir1 T cells in colon LP after DSS (C57BL/6 mice; [2]) | inflammatory cytokines of transferred CBir1 T cells after DSS (C57BL/6 mice; [2]) | weight loss in DSS colitis (C57BL/6 mice; [2]) | GAP formation in SI and colon ([1]; DOL 8 mice (neonatal phase)) | SI GAP formation ([1]; DOL 18 mice) | colonic GAP formation ([1]; DOL 28, post weaning) | GAP formation in the SI and colon ([1]; all phases of early life (DOL8, 18, 28)) | Foxp3 and inflammatory cytokine expression of CBir1 T cells after DSS (C57BL/6 mice; [3]) | expansion of CBir1 T cells in colon LP after DSS (C57BL/6 mice; [3]) |
| --- | --- | --- | --- | --- | --- | --- | --- | --- | --- | --- | --- | --- | --- | --- |
| EGF: recombinant murine EGF (Shenandoah); EGFR ligand, given luminally or intracolonically | inhibited | inhibited GAPs | < 1000 µg/mL | significantly reduced Foxp3 expression | developed significantly worse disease | significant expansion of CBir1 T cells in colon LP | significantly increased inflammatory cytokines | lost significantly more weight |  |  |  |  |  |  |
| COc1cc2ncnc(Nc3cccc(Cl)c3)c2cc1OC [EGFRi, tyrphostin AG1478] |  |  |  | significantly reduced Foxp3 expression | developed significantly worse disease | significant expansion of CBir1 T cells in colon LP | significantly increased inflammatory cytokines | lost significantly more weight | induced colonic and SI GAPs | induced | induced | allowed GAP formation in the SI and colon during all phases of early life | continued expressing Foxp3 but not inflammatory cytokines | did not expand further in the colon LP |
